This is an account of results in patent publication EP0125439A2, “3,6-Disubstituted-1,8-naphthalimides and methods for their production and use” (WARNER-LAMBERT COMPANY, priority 1983, dated 1984).

Counter-ions that a name gives are not always drawn. Like-named read-outs stand apart in the source and are kept apart here.

One assay has as its system B16 melanoma. Description: solid tumor B16 melanoma in mice. Format: in vivo. As to conditions: survival time treated/control. Here is the method:
Another test protocol utilizes the solid tumor B16 melanoma in mice. The tumor is inoculated by intraperitoneal injection. The test compounds are administered intraperitoneally once daily for nine consecutive days at various doses following tumor inoculation. A ratio of survival time for treated (T)/control (C) animals is calculated. A criterion for efficacy is a ratio T/C times 100 greater than or equal to 125. See Cancer Therapy Reviews, 7, 167 (1980) and references cited therein for further details and interpretation of the test.

For a further assay, the system named is mouse tumor line L1210. The assay is described as follows: growth inhibition of L1210 in suspension cell culture. As to conditions: read-out: L1210 Leukemia In Vitro ID50. Format: cell-based. Here is the method: In another test protocol, growth-inhibitory effects are measured against the mouse tumor line L1210 in suspension cell culture. Cell cultures were initiated at a density of 50,000 cells/ml in medium RPMI 1630 supplemented with 10 percent fetal calf serum. Composition of this culture medium and details of the culture procedure follow the published method (Journal of the National Cancer Institute 36, 405-415, 1966). Cultures are maintained at 37 degrees in stationary suspension culture under a 95 percent air + 5 percent C02 atmosphere. Test compounds are added to treated cultures at the time of initiation, and are present continually. After 72 hours, 40-fold dilutions of drug- treated and untreated control cultures are prepared in 0.9 percent NaCl solution, and cells are counted on an electronic particle counter. The growth-inhibitory effects are expressed as IDSO values, namely, test compound inhibitory dosages or concentrations required to decrease cell count in treated cultures to 50 percent of the cell count of untreated control cultures.

Assay [1] has as its system lymphocytic leukemia P388. The assay is described as follows: in vivo lymphocytic leukemia P388 test. Details: species or system CD2Fl mice. The settings on record: survival time treated/control. Here is the method:
Another test protocol is the in vivo lymphocytic leukemia P388 test. The animals used are either male or female CD2Fl mice, six or seven animals per test group. The tumor transplant is by intraperitoneal injection of dilute ascitic fluid containing cells of lymphocytic leukemia P388. The test compounds are administered intraperitoneally once daily for five consecutive days at various doses following tumor inoculation. The animals are weighed and survivors are recorded on a regular basis for 30 days. A compound is designated "toxic" if, at a given dose, all animals died prior to four days after the first injection of drug. A ratio of survival time for treated (T)/control (C) animals is calculated. A criterion for efficacy is a ratio T/C times 100 greater than or equal to 125. See Cancer Chemotherapy Reports, Part 3, 3, 1 (1972) for a comprehensive discussion of the protocol.

The subject of another assay is HCT-8 cells. Description: in vitro proliferating human colon adenocarcinoma (HCA) cell screen. It counts as cell-based. As to conditions: 60 - 65 hours with compound, nuclei count, 50% inhibition of growth, read-out: ID50 (the source's name). The procedure:
One test protocol is the in vitro proliferating human colon adenocarcinoma (HCA) cell screen. In this test, HCT-8 cells (HCA cell line received from Yale University) are trypsinized using trypsin-EDTA. A single cell suspension is achieved by passing the cells through a 26 gauge needle with a 20 cc syringe. A cell suspension is prepared using RPMI 1640 + 10% FCS + 50 ug/ml gentamicin sulfate with a cell concentration of approximately 30t000 cells/ml. The cell suspension is dispensed in Linbro 24-well plates; 1 ml/well. The plates are incubated for approximately 48 hours at 37 degrees C. in a 5% C02 atmosphere. At this time test compounds are added in the appropriate concentration. Five ul of the 200 ug/ml stock solution is added to each well in a primary test. Ten ul of the appropriate dilution is added to each well for a titration test. The plates are reincubated an additional 60 - 65 hours at 37 degrees C. in a 5% C02 atmosphere. The cells are lysed using a mix of cationic surfactant, glacial acetic acid and sodium chloride. Two ml of the lysed cell suspension from each well is added to 8 ml of diluent. The number of nuclei is determined using a Coulter counter (ZBI model), and a percent growth for each drug concentration is calculated. From this, an ID50 (molar concentration of compound that results in 50% inhibition of growth) is determined.

For assay [2], the system named is Streptococcus faecalis 05045. The assay is described as follows: in vitro antibacterial/antifungal (ABF) agar-disk diffusion assay. The settings on record: Enterococcus faecalis, Dose 500 mg/ml, AM-09 medium, read-out: Inhibition Zone Diameter S. Faecalis. It counts as cell-based. The procedure: (§1) Another test protocol is the in vitro anti- bacterial/antifungal (ABF) test. Compounds are tested for antimicrobial activity in an agar-disk diffusion assay, a standard microbiological technique for testing antibiotics. After incubation of each culture with a test compound, a zone of inhibition is determined. The zone diameter (mm) of active compounds ranges from a minimum of 13.5 mm to as high as 60 mm, with a greater diameter reflecting higher activity. For convenience, values are reported for the gram-negative bacterial species (Escherichia coli 04863), two gram positive bacteria (Bacillus subtilis 04555 and Streptococcus faecalis 05045 utilizing AM-09 medium), and one mycelial fungus (Penicillium avellaneum M2988).
In general terms: A growth-free zone around the sample is the usual read-out of agar diffusion tests.

In another assay the test system is Bacillus subtilis 04555. The assay is described as above. Format: cell-based. As to conditions: Dose 100 mg/ml, read-out: Inhibition Zone Diameter B. Subtilis. Here is the method: as §1
A further assay relates to Escherichia coli 04863. Described as above. Format: cell-based. As to conditions: Dose 500 mg/ml, read-out: Inhibition Zone Diameter E. Coli. The procedure: as §1
The test system of assay [3] is Penicillium avellaneum M2988. The description is as above. It counts as cell-based. As to conditions: Hamigera avellanea, read-out: Inhibition Zone Diameter P. avellaneum; for zone of inhibition at 500000 µg/mL: Dose 500 mg/ml. Here is the method: as §1

On to `CN(C)CCN1C(=O)c2cc([N+](=O)[O-])cc3cc([N+](=O)[O-])cc(c23)C1=O` [CH2CH2NMe2, N-[2-(Dimethylamino)ethyl]-3,6,-dinitro-1,8-naphtalamide, Hydrochloride], for which the “B16 Melanoma T/C X100” value in the assay with B16 melanoma (Dose 1.00 mg/kg intraperitoneally once daily for nine days) came to 125%. In addition, the IC50 in the assay with mouse tumor line L1210 (L1210, 72 hours, cell count 50 percent of untreated control) is 36 nM. The “P388 Leukemia In Mice T/C X100” value in assay [1] (Dose 3.12 mg/kg intraperitoneally once daily for five days) came to 167%.

For the compound `CCN(CC)CCN1C(=O)c2cc([N+](=O)[O-])cc3cc([N+](=O)[O-])cc(c23)C1=O` [CH2CH2NEt2, N-[2-(Diethylamino)ethyl]-3,6-dinitro-1.8-naphthalimide Hydrochloride], the IC50 was 350 nM with mouse tumor line L1210 (L1210, 72 h) and 960 nM with HCT-8 cells. Moreover, the “P388 Leukemia In Mice T/C X100” value in assay [1] (Dose 1.56 mg/kg intraperitoneally once daily for five days) is recorded as 155%.

On to `O=C1c2cc([N+](=O)[O-])cc3cc([N+](=O)[O-])cc(c23)C(=O)N1CCN1CCCC1` [CH2CH2N(CH2)4, 3,6-Dinitro-N[2-(pyrrolidinyl)ethyl]-1,8-naphthalimide Hydrocholoride], for which the IC50 is 83 nM in the assay on mouse tumor line L1210 (L1210, 72 h) and 180 nM with HCT-8 cells. Besides, the zone of inhibition at 500000 µg/mL in assay [2] amounted to 18 mm; in the assay with Escherichia coli 04863 it was 17 mm; in assay [3], 22 mm. Also, the zone of inhibition at 100000 µg/mL in the assay with Bacillus subtilis 04555 is 16 mm.

Consider `O=C1c2cc([N+](=O)[O-])cc3cc([N+](=O)[O-])cc(c23)C(=O)N1CCN1CCCCC1` [CH2CH2N(CH2)5, 3,6-Dinitro-N-[2-(piperidinyl)ethyl]-1,8-naphthalimide, Hydrochloride], for which, in the assay with B16 melanoma (Dose 12.5 mg/kg intraperitoneally once daily for nine days), the “B16 Melanoma T/C X100” value was determined as 135%. Moreover, the IC50 in the assay with mouse tumor line L1210 (L1210, 72 h) was 290 nM; in the assay on HCT-8 cells, 480 nM. For the same compound, the zone of inhibition at 500000 µg/mL in assay [2] turned out to be 19 mm; in the assay on Escherichia coli 04863, 16 mm; in assay [3], 26 mm. Also, the zone of inhibition at 100000 µg/mL in the assay with Bacillus subtilis 04555 came out at 24 mm.

Regarding `O=C1c2cc([N+](=O)[O-])cc3cc([N+](=O)[O-])cc(c23)C(=O)N1CCN1CCOCC1` [3,6-Dinitro-N-[2-(morpholino)ethyl]-1,8-naphthalimide], the IC50 came to 1100 nM in the assay with mouse tumor line L1210 (L1210, 72 h) and 860 nM in the assay on HCT-8 cells. In assay [2], the zone of inhibition at 500000 µg/mL amounted to 14 mm. Also, the zone of inhibition at 100000 µg/mL in the assay on Bacillus subtilis 04555 came to 22 mm. The zone of inhibition at 3 g/mL in assay [3] (Dose 3000 mg/ml) was 15 mm.
